Strand notation (5' to 3'): a small letter for the sugar, then the base; units joined by * are phosphorothioate-linked, units joined directly phosphodiester-linked; [ ] holds rarer units or linkages, { } end groups; capitals alone tell only the bases. e = 2'-O-(2-methoxyethyl) (MOE); [5mC] = 5-methylcytosine; d = 2'-deoxy (DNA)
How the values were obtained:
[1] = test system: PCSK9 mRNA; type: cell-based, human; conditions: Hep3B cells, 100 nM, relative to untreated control cells; for % Inhib: 0 = no reduction observed
Procedure: When cells reached appropriate confluency, they were treated with oligonucleotide using LIPOFECTIN® as described. […] Cells were treated and data were obtained in duplicate or triplicate. […] Cells were harvested 16-24 hours after oligonucleotide treatment.
Prior to quantitative PCR analysis, primer-probe sets specific to the target gene being measured were evaluated for their ability to be “multiplexed” with a GAPDH amplification reaction. After isolation the RNA is subjected to sequential reverse transcriptase (RT) reaction and real-time PCR, both of which are performed in the same well. RT and PCR reagents were obtained from Invitrogen Life Technologies (Carlsbad, Calif.). […] The RT reaction was carried out by incubation for 30 minutes at 48° C. Following a 10 minute incubation at 95° C. to activate the PLATIN 9M® Taq, 40 cycles of a two-step PCR protocol were carried out: 95° C. for 15 seconds (denaturation) followed by 60° C. for 1.5 minutes (annealing/extension).
170 μL of RiboGreen® working reagent (RiboGreen® reagent diluted 1:350 in 10 mM Tris-HCl, 1 mM EDTA, pH 7.5) was pipetted into a 96-well plate containing 30 μL purified cellular RNA. The plate was read in a CytoFluor® 4000 (PE Applied Biosystems) with excitation at 485 nm and emission at 530 nm.
Short antisense compounds targeted to a PCSK9 nucleic acid were tested for their effects on PCSK9 mRNA in vitro. The Isis No, gapmer motif and SEQ ID NO of each short antisense compound are shown again in Table 75. Cultured Hep3B cells were treated with 100 nM of short antisense compound. 5-10-5 MOE gapmers targeted to a PCSK9 nucleic acid were used as positive controls. After the treatment period, RNA was isolated from the cells and PCSK9 mRNA levels were measured by quantitative real-time PCR, as described herein. PCSK9 mRNA levels were adjusted according to total RNA content as measured by RIBOGREEN®. Results are presented in Table 75 as percent inhibition of PCSK9 (% Inhib), relative to untreated control cells.

[2] = test system: rat DGAT2 mRNA; assay: Dose-dependent inhibition of DGAT2 in A10 cells (Tables 82, 83); type: cell-based
Procedure: Additional short antisense compounds targeted to DGAT2 mRNA were tested in vitro in a dose-response experiment. A10 cells were prepared as described above and treated with 6.25, 12.5, 25.0, 50.0, 100.0, and 200.0 nM short antisense compounds to determine if DGAT2 inhibition occurs in a dose-dependent manner. […] Results are presented as percent inhibition, relative to untreated control cells.
Additional short antisense compounds targeted to DGAT2 mRNA were tested in vitro. A10 cells were prepared as described above and treated with 0.62, 1.85, 5.56, 16.67, 50.0, and 150.0 nM short antisense compounds to determine if DGAT2 inhibition occurs in a dose-dependent manner. DGAT2 mRNA was measured using quantitative real-time PCR, as described herein. […] Results are presented as percent inhibition of rat DGAT2, relative to untreated control cells.

Substance | % Inhib [1] | other results
400357 (antisense eT*eG*dG*d[5mC]*dA*dG*d[5mC]*dA*dG*dG*dA*dA*eG*e[5mC]) [compound 400357] | 0% | –
400306 (antisense e[5mC]*eT*dG*dT*d[5mC]*dA*d[5mC]*dA*d[5mC]*dT*dT*dG*e[5mC]*eT) [compound 400306] | 40% | % Inhibition Range [1]: 40-50%
400333 (antisense eT*e[5mC]*dA*dG*dG*dG*dA*dA*d[5mC]*d[5mC]*dA*dG*eG*e[5mC]) [compound 400333] | 0% | –
400363 (antisense e[5mC]*e[5mC]*dG*dG*d[5mC]*dA*dG*d[5mC]*dA*dG*dA*dT*eG*eG) [compound 400363] | 8% | –
400362 (antisense e[5mC]*eG*dG*d[5mC]*dA*dG*d[5mC]*dA*dG*dA*dT*dG*eG*e[5mC]) [compound 400362] | 16% | % Inhibition Range [1]: 10-20%
400322 (antisense eT*eT*d[5mC]*d[5mC]*dG*dA*dA*dT*dA*dA*dA*d[5mC]*eT*e[5mC]) [compound 400322] | 0% | –
400334 (antisense e[5mC]*eT*d[5mC]*dA*dG*dG*dG*dA*dA*d[5mC]*d[5mC]*dA*eG*eG) [compound 400334] | 0% | –
400320 (antisense e[5mC]*e[5mC]*dG*dA*dA*dT*dA*dA*dA*d[5mC]*dT*d[5mC]*e[5mC]*eA) [compound 400320] | 0% | –
400339 (antisense eT*eG*dG*dT*d[5mC]*d[5mC]*dT*d[5mC]*dA*dG*dG*dG*eA*eA) [compound 400339] | 0% | –
400299 (antisense eA*e[5mC]*dA*dT*dG*dG*dG*dG*d[5mC]*dA*dA*d[5mC]*eT*eT) [compound 400299] | 0% | –
400359 (antisense e[5mC]*eA*dT*dG*dG*d[5mC]*dA*dG*d[5mC]*dA*dG*dG*eA*eA) [compound 400359] | 0% | –
400314 (antisense eG*eT*dG*d[5mC]*d[5mC]*d[5mC]*dT*dT*d[5mC]*d[5mC]*d[5mC]*dT*eT*eG) [compound 400314] | 26% | % Inhibition Range [1]: 20-30%
400345 (antisense eT*eG*dG*dG*dT*dG*d[5mC]*dT*dG*dG*dG*dG*eG*eG) [compound 400345] | 0% | –
400323 (antisense eG*e[5mC]*d[5mC]*dA*dG*dG*dG*dG*d[5mC]*dA*dG*d[5mC]*eA*eG) [compound 400323] | 0% | –
400348 (antisense eT*eG*dG*dA*dG*d[5mC]*dA*dG*d[5mC]*dT*d[5mC]*dA*eG*e[5mC]) [compound 400348] | 0% | –
400302 (antisense eG*eA*dT*dA*d[5mC]*dA*d[5mC]*d[5mC]*dT*d[5mC]*d[5mC]*dA*e[5mC]*e[5mC]) [compound 400302] | 0% | –
400351 (antisense eA*e[5mC]*d[5mC]*d[5mC]*dT*d[5mC]*dA*d[5mC]*d[5mC]*d[5mC]*d[5mC]*d[5mC]*eA*eA) [compound 400351] | 14% | % Inhibition Range [1]: 10-20%
400325 (antisense e[5mC]*e[5mC]*d[5mC]*d[5mC]*dA*dA*dA*dG*dT*d[5mC]*d[5mC]*d[5mC]*e[5mC]*eA) [compound 400325] | 4% | –
400344 (antisense eG*eG*dG*dT*dG*d[5mC]*dT*dG*dG*dG*dG*dG*eG*e[5mC]) [compound 400344] | 0% | –
400343 (antisense eG*eG*dT*dG*d[5mC]*dT*dG*dG*dG*dG*dG*dG*e[5mC]*eA) [compound 400343] | 0% | –

Substance | % Inhib [1] | other results
400321 (antisense eT*e[5mC]*d[5mC]*dG*dA*dA*dT*dA*dA*dA*d[5mC]*dT*e[5mC]*e[5mC]) [compound 400321] | 0% | –
400342 (antisense eG*eT*dG*d[5mC]*dT*dG*dG*dG*dG*dG*dG*d[5mC]*eA*eG) [compound 400342] | 0% | –
400317 (antisense e[5mC]*eT*dA*dT*dG*dA*dG*dG*dG*dT*dG*d[5mC]*e[5mC]*eG) [compound 400317] | 7% | –
400347 (antisense eG*eG*dA*dG*d[5mC]*dA*dG*d[5mC]*dT*d[5mC]*dA*dG*e[5mC]*eA) [compound 400347] | 0% | –
400318 (antisense e[5mC]*e[5mC]*dT*dA*dT*dG*dA*dG*dG*dG*dT*dG*e[5mC]*e[5mC]) [compound 400318] | 26% | % Inhibition Range [1]: 20-30%
400303 (antisense eA*eG*dA*dT*dA*d[5mC]*dA*d[5mC]*d[5mC]*dT*d[5mC]*d[5mC]*eA*e[5mC]) [compound 400303] | 0% | –
400312 (antisense e[5mC]*eA*dT*d[5mC]*d[5mC]*d[5mC]*dG*dG*d[5mC]*d[5mC]*dG*d[5mC]*eT*eG) [compound 400312] | 28% | % Inhibition Range [1]: 20-30%
400368 (antisense e[5mC]*eG*dG*d[5mC]*dT*d[5mC]*d[5mC]*dG*dG*d[5mC]*dA*dG*e[5mC]*eA) [compound 400368] | 11% | % Inhibition Range [1]: 10-20%
400338 (antisense eG*eG*dT*d[5mC]*d[5mC]*dT*d[5mC]*dA*dG*dG*dG*dA*eA*e[5mC]) [compound 400338] | 9% | –
400332 (antisense e[5mC]*eA*dG*dG*dG*dA*dA*d[5mC]*d[5mC]*dA*dG*dG*e[5mC]*e[5mC]) [compound 400332] | 0% | –
400371 (antisense eA*eG*dT*dT*dA*d[5mC]*dA*dA*dA*dA*dG*d[5mC]*eA*eA) [compound 400371] | 0% | –
400315 (antisense eA*eT*dG*dA*dG*dG*dG*dT*dG*d[5mC]*d[5mC]*dG*e[5mC]*eT) [compound 400315] | 0% | –
400364 (antisense eT*e[5mC]*d[5mC]*dG*dG*d[5mC]*dA*dG*d[5mC]*dA*dG*dA*eT*eG) [compound 400364] | 0% | –
400356 (antisense eT*eA*dG*dA*d[5mC]*dA*d[5mC]*d[5mC]*d[5mC]*dT*d[5mC]*dA*e[5mC]*e[5mC]) [compound 400356] | 0% | –
400329 (antisense e[5mC]*eA*d[5mC]*dG*dT*dG*dG*dG*d[5mC]*dA*dG*d[5mC]*eA*eG) [compound 400329] | 14% | % Inhibition Range [1]: 10-20%
400326 (antisense eT*e[5mC]*d[5mC]*d[5mC]*d[5mC]*dA*dA*dA*dG*dT*d[5mC]*d[5mC]*e[5mC]*e[5mC]) [compound 400326] | 0% | –
400346 (antisense eG*eA*dG*d[5mC]*dA*dG*d[5mC]*dT*d[5mC]*dA*dG*d[5mC]*eA*eG) [compound 400346] | 5% | –
372568 (antisense eG*eA*d[5mC]*dA*d[5mC]*dT*dG*d[5mC]*dA*dG*dG*d[5mC]*e[5mC]*eA) [compound 372568] | – | percent inhibition of DGAT2 ([2]; 6.25 nM (Table 82)): 0%; percent inhibition of DGAT2 ([2]; 12.5 nM (Table 82)): 0%; percent inhibition of DGAT2 ([2]; 50.0 nM (Table 82)): 26%; percent inhibition of DGAT2 ([2]; 100.0 nM (Table 82)): 72%; percent inhibition of DGAT2 ([2]; 200.0 nM (Table 82)): 69%
372562 (antisense eG*eT*d[5mC]*dT*dT*dG*dG*dA*dG*dG*dG*d[5mC]*e[5mC]*eG) [compound 372562] | – | percent inhibition of DGAT2 ([2]; 6.25 nM (Table 82)): 0%; percent inhibition of DGAT2 ([2]; 12.5 nM (Table 82)): 0%; percent inhibition of DGAT2 ([2]; 50.0 nM (Table 82)): 36%; percent inhibition of DGAT2 ([2]; 100.0 nM (Table 82)): 48%; percent inhibition of DGAT2 ([2]; 200.0 nM (Table 82)): 75%

— patent US8372967B2, “Compounds and methods for modulating expression of GCCR” (Isis Pharmaceuticals, Inc., priority 2006, dated 2013)
